According to PubChem BioAssay (NCI):
Several values for one entry are separate records, joined by “and”; a condition that tells them apart may be missing. Equal entries are not always repeated.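 96-well plates; 48 h exposure; 5 concentrations. Endpoints by linear interpolation between flanking doses. Not reached: highest tested concentration assigned. GI50 marks 50% less growth. Definition used: TGI = concentration required for complete inhibition of growth.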

What was measured:
Test in all cases: NCI tumour cell line growth inhibition, 48 h
[1] = tested on: SK-OV-3 ovarian
[2] = tested on: HS 578T breast
[3] = tested on: OVCAR-5 ovarian
[4] = tested on: M14 melanoma
[5] = tested on: CCRF-CEM leukemia
[6] = tested on: OVCAR-3 ovarian
[7] = tested on: U251 CNS
[8] = tested on: NCI-H226 lung
[9] = tested on: T-47D breast
[10] = tested on: NCI-H23 lung

Row | SMILES | GI50 [1] | TGI [1] [µM] | GI50 [2] [µM] | TGI [2] [µM] | GI50 [3] | TGI [3] [µM] | GI50 [4] [nM] | TGI [4] | GI50 [5] | TGI [5] [µM] | GI50 [6] [µM] | TGI [6] [µM] | GI50 [7] [µM] | TGI [7] [µM] | GI50 [8] [µM] | TGI [8] [µM] | GI50 [9] [µM] | TGI [9] [µM] | GI50 [10] | TGI [10] [µM]
1 | COc1ccc2c(c1)N(CCO)C1=C(C(=O)OC1)C2c1cccc(Br)c1 (centres undefined) | 0.0913 µM | 19 | 0.209 | > 100 | 466 nM | > 100 | 61.2 | 597 nM | 0.217 µM | > 100 | 0.0338 | 0.135 | 0.0534 | 15.9 | 0.175 | 2.56 | 26.1 | > 100 | 156 nM | > 100
2 | CCOCC[P+](c1ccccc1)(c1ccccc1)c1ccccc1 | 20.1 µM | 79.8 | 21.7 | 99.5 | 25900 nM | > 100 | 26500 | > 100000 nM | 23 µM | > 100 | 19.3 | > 100 | 18.1 | 92.5 | 17.8 | > 100 | 4.21 | > 100 | 17500 nM | 80.9
3 | COC(=O)C12OCC34C(CC5C(C)=CC(=O)C(O)C5(C)C3C(O)C1O)OC(=O)C(OC(=O)CC(C)C)C24 (centres undefined) | 0.3 µM and 0.05 µM | – | – | 0.000948 | 82.5 nM and 58.6 nM | – | 3.4 | 12.9 nM and 68.9 nM | < 0.0503 µM and 0.05 µM | – | < 0.0518 | – | < 0.0342 | – | < 0.0345 | – | – | 0.006 | < 46 nM and 50 nM | –
4 | COc1ccc(C2SC(C)C(=O)N2NC(=O)C(O)c2ccccc2)cc1 (centres undefined) | 63.1 µM | > 100 | > 100 | > 100 | > 100000 nM | > 100 | > 100000 | > 100000 nM | > 100 µM | > 100 | > 100 | > 100 | > 100 | > 100 | > 100 | > 100 | > 100 | > 100 | – | –
5 | Clc1cccc(Cc2cn3cc(-c4ccccc4)nc3s2)c1 | 39.6 µM | > 100 | 13.4 | > 100 | 66800 nM | > 100 | 840 | > 100000 nM | 43 µM | > 100 | 9.07 | > 100 | 9.18 | 81.2 | 49.2 | > 100 | 2.33 | > 100 | 9070 nM | 98.9
